Results reported in paper PMC8523698, “Preclinical characterization of an intravenous coronavirus 3CL protease inhibitor for the potential treatment of COVID19” (Nature Communications, 2021).
Where “and” joins values, the source holds several entries; their conditions need not be identical. Identical values can stand only once.

Legend:
[1] = Metabolic stability and enzyme kinetics in liver S9 (conversion to PF-00835231); conditions: for microsomal CLint / Km at 20 min: rat
[2] = Cytotoxicity in MRC-5 cells; conditions: human
[3] = Metabolic stability and enzyme kinetics in liver S9 (conversion to PF-00835231); conditions: for PF-00835231 formation rate: Human Liver S9 0.03 mg/ml, 20 min, R1-R3; for Km at 20 min / microsomal CLint: human
[4] = as above; conditions: for Km at 20 min / microsomal CLint: dog
[5] = liver S9, pH 7.5, CL, unsaturable component, best-fit
[6] = liver S9, pH 7.5, CLint,2, low affinity kinetic component
[7] = liver S9, pH 7.5, CLintu (unbound CLint)

COc1cccc2[nH]c(C(=O)N[C@@H](CC(C)C)C(=O)N[C@@H](C[C@@H]3CCNC3=O)C(=O)COP(=O)(O)O)cc12 [PF-07304814]
Vmax ([1]; Rat, best-fit, Two enzyme: MM + Unsaturable): 2188 pmol/min/mg
microsomal CLint [1, 5]: 4.56 µL/min/mg
microsomal CLint ([1]; liver S9, pH 7.5, CLint total, Rat, (vmax / KM) + CL): 45.5 µL/min/mg
microsomal CLint [1, 6]: 4.56 µL/min/mg
microsomal CLint ([1]; liver S9, pH 7.5, CLint,app): 45.5 µL/min/mg
microsomal CLint [1, 7]: 51 µL/min/mg
Km at 20 min ([1]; rat liver S9, pH 7.5, KM): 53.4 µM
Km at 20 min ([1]; rat liver S9, pH 7.5, Km, Rat, best-fit, Two enzyme: MM + Unsaturable): 53.4 µM
CC50 at 5 days [2]: > 100 µM
CC50 at 5 days ([2]; MRC-5 cells): > 100 µM
CC50 at 5 days ([2]; MRC-5 cells, with CP-100356 (efflux inhibitor) 0.5 µM): > 100 µM
PF-00835231 formation rate ([3]; substrate 0.207 µM): 100 pmol/min/mg and 108 pmol/min/mg and 109 pmol/min/mg
PF-00835231 formation rate ([3]; substrate 3.81 µM): 923 pmol/min/mg and 978 pmol/min/mg and 975 pmol/min/mg
PF-00835231 formation rate ([3]; substrate 16.3 µM): 2081 pmol/min/mg and 1997 pmol/min/mg and 1964 pmol/min/mg
PF-00835231 formation rate ([3]; substrate 33.8 µM): 2700 pmol/min/mg and 2483 pmol/min/mg and 2383 pmol/min/mg
PF-00835231 formation rate ([3]; substrate 70.0 µM): 3450 pmol/min/mg and 3533 pmol/min/mg and 2817 pmol/min/mg
Vmax ([3]; Human liver S9, best-fit, Two enzyme: MM + Unsaturable): 2313 pmol/min/mg
Vmax ([3]; Human, best-fit, Two enzyme: MM + Unsaturable): 2313 pmol/min/mg
Km at 20 min ([3]; human liver S9, pH 7.5, KM): 6.23 µM
Km at 20 min ([3]; human liver S9, pH 7.5, Km, Human liver S9, best-fit, Two enzyme: MM + Unsaturable): 6.23 µM
microsomal CLint ([3]; liver S9, pH 7.5, CLint total, Human liver S9, CLint total = (vmax / KM) + CL): 381 µL/min/mg
microsomal CLint ([3]; liver S9, pH 7.5, CLint total, Human, (vmax / KM) + CL): 381 µL/min/mg
microsomal CLint [3, 6]: 9.96 µL/min/mg
microsomal CLint ([3]; liver S9, pH 7.5, CLint,app): 381 µL/min/mg
microsomal CLint [3, 7]: 428 µL/min/mg
microsomal CLint ([3]; liver S9, pH 7.5, Human liver S9 Clint, clearance input): 381 µL/min/mg
Vmax ([4]; Dog, best-fit, Two enzyme: MM + Unsaturable): 213.7 pmol/min/mg
Km at 20 min ([4]; dog liver S9, pH 7.5, KM): 2.91 µM
Km at 20 min ([4]; dog liver S9, pH 7.5, Km, Dog, best-fit, Two enzyme: MM + Unsaturable): 2.91 µM
microsomal CLint [4, 5]: 1.69 µL/min/mg
microsomal CLint ([4]; liver S9, pH 7.5, CLint total, Dog, (vmax / KM) + CL): 75.2 µL/min/mg
microsomal CLint ([4]; liver S9, pH 7.5, CLint,app): 75.2 µL/min/mg
microsomal CLint [4, 7]: 84 µL/min/mg
